Test results from PubChem BioAssay AID250 (DTP/NCI, 2004).
Several values for one entry are separate records, joined by “and”; a condition that tells them apart may be missing. Identical values can stand only once. Inconclusive results and toxic doses are left out.

Test system: BDF1 mice, L1210 leukemia sc, survival T/C
Assay: NCI In Vivo Anticancer Drug Screen. Data for tumor model L1210 Leukemia (subcutaneous) in B6D2F1 (BDF1) mice
Details: higher = longer survival
How it was run: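 Tumors were transplanted into mice, the animals were treated with compound, survival or tumor size was then measured, and treated values were divided by vehicle-control values.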

[1] = endpoint: median survival time, dose: 1.0 mg/kg/injection, schedule: Q01DX009 (ip), vehicle: water
[2] = endpoint: median survival time, dose: 2.0 mg/kg/injection, schedule: Q01DX009 (sc), vehicle: water
[3] = endpoint: median survival time, dose: 180.0 mg/kg/injection, schedule: Q01DX Z (sc), vehicle: carboxymethylcellulose (CMC)
[4] = endpoint: median survival time, dose: 300.0 mg/kg/injection, schedule: Q01DX Z (sc), vehicle: carboxymethylcellulose (CMC)
[5] = endpoint: median survival time, dose: 500.0 mg/kg/injection, schedule: Q01DX Z (sc), vehicle: carboxymethylcellulose (CMC)
[6] = endpoint: median survival time, dose: 108.0 mg/kg/injection, schedule: Q01DX Z (sc), vehicle: methylcellulose (MC)
[7] = endpoint: median survival time, dose: 500.0 mg/kg/injection, schedule: Q01DX Z (sc), vehicle: methylcellulose (MC)
[8] = endpoint: median survival time, dose: 39.0 mg/kg/injection, schedule: Q01DX Z (sc), vehicle: methylcellulose (MC)
[9] = endpoint: median survival time, dose: 65.0 mg/kg/injection, schedule: Q01DX Z (sc), vehicle: methylcellulose (MC)
[10] = endpoint: median survival time, dose: 180.0 mg/kg/injection, schedule: Q01DX Z (sc), vehicle: methylcellulose (MC)
[11] = endpoint: median survival time, dose: 300.0 mg/kg/injection, schedule: Q01DX Z (sc), vehicle: methylcellulose (MC)

In the case of `C[n+]1ccc(Nc2ccc(NC(=O)c3ccc(Nc4cc[n+](C)c5ccc(N)cc45)cc3N)cc2)cc1`, the T/C (endpoint: median survival time, dose: 0.5 mg/kg/injection, schedule: Q03HX024 (ip), vehicle: water) is reported as 111 % of control, the T/C [1] is reported as 116 % of control and the T/C (endpoint: median survival time, dose: 2.0 mg/kg/injection, schedule: Q01DX009 (ip), vehicle: water) is reported as 155 % of control. For the same molecule, the T/C [2] was 110 % of control, the T/C (endpoint: median survival time, dose: 2.0 mg/kg/injection, schedule: Q03HX024 (ip), vehicle: water) was 183 % of control and the T/C (endpoint: median survival time, dose: 4.0 mg/kg/injection, schedule: Q01DX009 (ip), vehicle: water) was 233 % of control. For the same molecule, the T/C (endpoint: median survival time, dose: 4.0 mg/kg/injection, schedule: Q01DX009 (sc), vehicle: water) was 170 % of control, the T/C (endpoint: median survival time, dose: 4.0 mg/kg/injection, schedule: Q03HX008 (sc), vehicle: water) was 120 % of control and the T/C (endpoint: median survival time, dose: 4.0 mg/kg/injection, schedule: Q03HX024 (ip), vehicle: water) was 288 % of control. For the same molecule, the T/C (endpoint: median survival time, dose: 4.0 mg/kg/injection, schedule: Q03HX024 (sc), vehicle: water) was 165 % of control, the T/C (endpoint: median survival time, dose: 8.0 mg/kg/injection, schedule: Q01DX009 (ip), vehicle: water) was 194 % of control and the T/C (endpoint: median survival time, dose: 8.0 mg/kg/injection, schedule: Q01DX009 (sc), vehicle: water) was 225 % of control. The T/C (endpoint: median survival time, dose: 8.0 mg/kg/injection, schedule: Q03HX024 (ip), vehicle: water) was 188 % of control, the T/C (endpoint: median survival time, dose: 8.0 mg/kg/injection, schedule: Q03HX024 (sc), vehicle: water) was 220 % of control and the T/C (endpoint: median survival time, dose: 8.0 mg/kg/injection, schedule: Q04DX003 (sc), vehicle: water) was 100 % of control. The T/C (endpoint: median survival time, dose: 16.0 mg/kg/injection, schedule: Q01DX001 (sc), vehicle: water) was 110 % of control, the T/C (endpoint: median survival time, dose: 16.0 mg/kg/injection, schedule: Q01DX009 (ip), vehicle: water) was 177 % of control and the T/C (endpoint: median survival time, dose: 16.0 mg/kg/injection, schedule: Q01DX009 (sc), vehicle: water) was 270 % of control. The T/C (endpoint: median survival time, dose: 16.0 mg/kg/injection, schedule: Q03HX008 (sc), vehicle: water) was 235 % of control, the T/C (endpoint: median survival time, dose: 16.0 mg/kg/injection, schedule: Q03HX024 (sc), vehicle: water) was 155 % of control and the T/C (endpoint: median survival time, dose: 32.0 mg/kg/injection, schedule: Q01DX009 (sc), vehicle: water) was 180 % of control. For the same molecule, the T/C (endpoint: median survival time, dose: 32.0 mg/kg/injection, schedule: Q03HX008 (sc), vehicle: water) was 210 % of control, the T/C (endpoint: median survival time, dose: 32.0 mg/kg/injection, schedule: Q03HX024 (sc), vehicle: water) was 100 % of control and the T/C (endpoint: median survival time, dose: 32.0 mg/kg/injection, schedule: Q04DX003 (sc), vehicle: water) was 205 % of control. The T/C (endpoint: median survival time, dose: 64.0 mg/kg/injection, schedule: Q01DX001 (sc), vehicle: water) was 215 % of control, the T/C (endpoint: median survival time, dose: 64.0 mg/kg/injection, schedule: Q04DX003 (sc), vehicle: water) was 260 % of control and the T/C (endpoint: median survival time, dose: 128.0 mg/kg/injection, schedule: Q01DX001 (sc), vehicle: water) was 240 % of control. For the same molecule, the T/C (endpoint: median survival time, dose: 128.0 mg/kg/injection, schedule: Q04DX003 (sc), vehicle: water) was 245 % of control.

For `CN(C)c1ccc(/C=C2\C=Cc3ccccc32)cc1`, the T/C [3] was 100 % of control, the T/C [4] was 100 % of control and the T/C [5] was 105 % of control. For the same molecule, the T/C (endpoint: median survival time, dose: 833.0 mg/kg/injection, schedule: Q01DX Z (sc), vehicle: carboxymethylcellulose (CMC)) was 111 % of control.

For `CO[C@H](C(=O)[C@@H](O)[C@@H](C)O)[C@@H]1Cc2cc3cc(OC4CC(OC5CC(O)C(O)C(C)O5)C(O)C(C)O4)c(C)c(O)c3c(O)c2C(=O)[C@H]1OC1CC(OC2CC(OC3CC(C)(O)C(O)C(C)O3)C(O)C(C)O2)C(O)C(C)O1` (stereo partly specified), the T/C (endpoint: median survival time, dose: 0.12 mg/kg/injection, schedule: Q01DX009 (ip), vehicle: water) was 105 % of control, the T/C (endpoint: median survival time, dose: 0.12 mg/kg/injection, schedule: Q01DX009 (sc), vehicle: water) was 103 % of control and the T/C (endpoint: median survival time, dose: 0.25 mg/kg/injection, schedule: Q01DX009 (ip), vehicle: water) was 94 % of control. For the same molecule, the T/C (endpoint: median survival time, dose: 0.25 mg/kg/injection, schedule: Q01DX009 (sc), vehicle: water) was 100 % of control and 103 % of control, the T/C (endpoint: median survival time, dose: 0.5 mg/kg/injection, schedule: Q01DX009 (sc), vehicle: water) was 95 % of control and 110 % of control and the T/C [1] was 93 % of control. The T/C (endpoint: median survival time, dose: 1.0 mg/kg/injection, schedule: Q01DX009 (sc), vehicle: water) was 101 % of control and the T/C [2] was 96 % of control.

For `O=c1[nH]c(=S)c2[nH]c(=O)[nH]c2[nH]1`, the T/C (endpoint: median survival time, dose: 3.0 mg/kg/injection, schedule: Q01DX Z (sc), vehicle: methylcellulose (MC)) was 100 % of control and the T/C (endpoint: median survival time, dose: 5.0 mg/kg/injection, schedule: Q01DX Z (sc), vehicle: methylcellulose (MC)) was 100 % of control.

For `CC1CN1CCS(=O)(=O)CCN1CC1C` (stereo unspecified), the T/C (endpoint: median survival time, dose: 5.18 mg/kg/injection, schedule: Q01DX Z (sc), vehicle: saline) was 121 % of control, the T/C (endpoint: median survival time, dose: 8.64 mg/kg/injection, schedule: Q01DX Z (sc), vehicle: saline) was 168 % of control and the T/C (endpoint: median survival time, dose: 14.4 mg/kg/injection, schedule: Q01DX Z (sc), vehicle: saline) was 163 % of control. The T/C (endpoint: median survival time, dose: 24.0 mg/kg/injection, schedule: Q01DX Z (sc), vehicle: saline) was 115 % of control and the T/C (endpoint: median survival time, dose: 40.0 mg/kg/injection, schedule: Q01DX Z (sc), vehicle: saline) was 105 % of control.

With `CCC(C)SC1=NC=NC2=NC=NC21` (stereo unspecified) the T/C (endpoint: median survival time, dose: 38.9 mg/kg/injection, schedule: Q01DX Z (sc), vehicle: methylcellulose (MC)) was 109 % of control, the T/C [6] was 150 % of control and the T/C [7] was 100 % of control. The T/C (endpoint: median survival time, dose: 833.0 mg/kg/injection, schedule: Q01DX Z (sc), vehicle: methylcellulose (MC)) was 100 % of control.

`Nc1ncc(N)c(N)n1` was tested, and the T/C [8] was 100 % of control, the T/C (endpoint: median survival time, dose: 65.0 mg/kg/injection, schedule: Q01DX Z (sc), vehicle: carboxymethylcellulose (CMC)) was 100 % of control and the T/C [9] was 100 % of control. The T/C (endpoint: median survival time, dose: 108.0 mg/kg/injection, schedule: Q01DX Z (sc), vehicle: carboxymethylcellulose (CMC)) was 107 % of control, the T/C [6] was 100 % of control and the T/C [3] was 100 % of control. The T/C [10] was 100 % of control, the T/C [4] was 100 % of control and the T/C [11] was 100 % of control. The T/C [5] was 100 % of control.

For `Nc1nc2c(c(=O)[nH]1)N=C(CNc1ccc(C(=O)NC(CCC(=O)O)C(=O)O)cc1)CN2` (stereo unspecified), the T/C (endpoint: mean survival time, dose: 1.0 mg/kg/injection, schedule: Q01DX009 (ip), vehicle: sodium bicarbonate) was 95 % of control, the T/C (endpoint: mean survival time, dose: 2.0 mg/kg/injection, schedule: Q01DX009 (ip), vehicle: sodium bicarbonate) was 94 % of control and the T/C (endpoint: mean survival time, dose: 4.0 mg/kg/injection, schedule: Q01DX009 (ip), vehicle: sodium bicarbonate) was 98 % of control. The T/C (endpoint: mean survival time, dose: 4.0 mg/kg/injection, schedule: Q04DX003 (ip), vehicle: sodium bicarbonate) was 98 % of control, the T/C (endpoint: mean survival time, dose: 8.0 mg/kg/injection, schedule: Q01DX009 (ip), vehicle: sodium bicarbonate) was 94 % of control and the T/C (endpoint: mean survival time, dose: 8.0 mg/kg/injection, schedule: Q04DX003 (ip), vehicle: sodium bicarbonate) was 100 % of control. The T/C (endpoint: mean survival time, dose: 16.0 mg/kg/injection, schedule: Q01DX009 (ip), vehicle: sodium bicarbonate) was 102 % of control, the T/C (endpoint: mean survival time, dose: 16.0 mg/kg/injection, schedule: Q04DX003 (ip), vehicle: sodium bicarbonate) was 96 % of control and the T/C (endpoint: mean survival time, dose: 32.0 mg/kg/injection, schedule: Q04DX003 (ip), vehicle: sodium bicarbonate) was 98 % of control. For the same molecule, the T/C (endpoint: mean survival time, dose: 64.0 mg/kg/injection, schedule: Q04DX003 (ip), vehicle: sodium bicarbonate) was 96 % of control.

For `COc1cc(NS(C)(=O)=O)ccc1Nc1c2cccc(C)c2nc2c(C)cccc12`, the T/C (endpoint: mean survival time, dose: 6.25 mg/kg/injection, schedule: Q01DX009 (ip), vehicle: Klucel (hydroxypropylcellulose) (HPC)) was 100 % of control, the T/C (endpoint: mean survival time, dose: 12.5 mg/kg/injection, schedule: Q01DX009 (ip), vehicle: Klucel (hydroxypropylcellulose) (HPC)) was 103 % of control and the T/C (endpoint: mean survival time, dose: 25.0 mg/kg/injection, schedule: Q01DX009 (ip), vehicle: Klucel (hydroxypropylcellulose) (HPC)) was 102 % of control. The T/C (endpoint: mean survival time, dose: 50.0 mg/kg/injection, schedule: Q01DX009 (ip), vehicle: Klucel (hydroxypropylcellulose) (HPC)) was 103 % of control.

For `C=C(C)c1ccc(/C=N/NC(N)=S)cc1`, the T/C [8] was 109 % of control, the T/C [9] was 109 % of control and the T/C [6] was 109 % of control. For the same molecule, the T/C [10] was 109 % of control, the T/C [11] was 113 % of control and the T/C [7] was 109 % of control.
